# Measurements as given in patent publication US8183252B2, “Heterocyclic aspartyl protease inhibitors” (Schering Corporation, priority 2007, dated 2012).
# Biological target: T1, human BACE1 (sproBACE1) (Homo sapiens, UniProt P56817)
# T1 construct: sBACE1, corresponding to amino acids 1-454; made in house; host or cells: Sf9 insect cells (baculovirus), secreted into the medium
# Assay: BACE-1 Peptide Hydrolysis Assay (HTRF)
# Type: biochemical
# Conditions: read-out: BACE-1 Ki
# Description: A HindIII/PmeI fragment from pCDNA4-sBACE1myc/His was blunt ended using Klenow and subcloned into the Stu I site of PFASTBACI(A) (Invitrogen). A sBACE1mycHis recombinant bacmid was generated by transposition in DH10Bac cells (GIBCO/BRL). Subsequently, the sBACE1mycHis bacmid construct was transfected into sf9 cells using CellFectin (Invitrogen, San Diego, Calif.) in order to generate recombinant baculovirus. […] Five milliliters of high titer plaque purified sBACEmyc/His virus was used to infect 1 L of logarithmically growing sf9 cells for 72 hours. Intact cells were pelleted by centrifugation at 3000×g for 15 minutes. The supernatant, containing secreted sBACE1, was collected and diluted 50% v/v with 100 mM HEPES, pH 8.0. The diluted medium was loaded onto a Q-sepharose column. The Q-sepharose column was washed with Buffer A (20 mM HEPES, pH 8.0, 50 mM NaCl).
# Proteins, were eluted from the Q-sepharose column with Buffer B (20 mM HEPES, pH 8.0, 500 mM NaCl). The protein peaks from the Q-sepharose column were pooled and loaded onto a Ni-NTA agarose column. The Ni-NTA column was then washed with Buffer C (20 mM HEPES, pH 8.0, 500 mM NaCl). Bound proteins were then eluted with Buffer D (Buffer C+250 mM imidazole).
# Reactions were initiated by addition of substrate in a 5 μl aliquot resulting in a total volume of 25 μl. After 3 hr at 30° C. reactions were terminated by addition of an equal volume of 2× stop buffer containing 50 mM Tris-HCl pH 8.0, 0.5 M KF, 0.001% Brij-35, 20 μg/ml SA-XL665 (cross-linked allophycocyanin protein coupled to streptavidin; CIS-Bio International, France) (0.5 μg/well). Plates were shaken briefly and spun at 1200×g for 10 seconds to pellet all liquid to the bottom of the plate before the incubation.
# Y=Bottom+(Top-Bottom)/(1+10^((LogEC50−X)*Hill Slope)); X is the logarithm of concentration of I, Y is the percent change in ratio and Y starts at bottom and goes to top with a sigmoid shape.
# T1 sequence (P56817 22-454): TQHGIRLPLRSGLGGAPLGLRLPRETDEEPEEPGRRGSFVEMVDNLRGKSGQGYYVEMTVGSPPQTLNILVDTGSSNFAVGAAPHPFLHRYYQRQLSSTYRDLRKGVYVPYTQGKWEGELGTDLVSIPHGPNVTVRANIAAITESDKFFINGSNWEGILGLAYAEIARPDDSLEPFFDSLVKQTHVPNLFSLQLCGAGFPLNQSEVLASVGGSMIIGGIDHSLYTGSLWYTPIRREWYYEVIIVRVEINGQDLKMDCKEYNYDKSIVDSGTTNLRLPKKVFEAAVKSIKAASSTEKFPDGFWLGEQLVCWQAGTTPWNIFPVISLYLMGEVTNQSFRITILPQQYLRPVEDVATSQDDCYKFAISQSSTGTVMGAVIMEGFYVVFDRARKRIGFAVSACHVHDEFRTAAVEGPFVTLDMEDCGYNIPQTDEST
row,SMILES,Ki
1,COCC1CCCN1C(=O)c1cccc(CN2C(=N)NC(C)(c3cccc(-c4cccc(Cl)c4)c3)C2=O)c1 (stereo not shown),< 5 µM
2,COCC1CCCN1C(=O)c1cncc(CN2C(=N)NC(c3ccccc3)(C3CC3)C2=O)c1 (stereo not shown),< 5 µM
3,N=C1NC(c2ccccc2)(c2ccccc2)C(=O)N1CC1CCN(C(=O)Nc2cccc(F)c2)CC1,< 5 µM
4,CN1C(=N)NC(CCc2ccccc2)(CC2CCCC(Nc3ccccn3)C2)C1=O (stereo not shown),< 5 µM
5,CN1C(=N)N[C@](CCc2ccccc2)(C[C@H]2CCC[C@@H](Nc3ccccc3)C2)C1=O,< 5 µM
6,Cc1ccc(CN2C(=N)NC(c3ccccc3)(c3ccccc3)C2=O)cc1,< 5 µM
7,CN1C(=N)N[C@](C)(C[C@H]2CCC[C@@H](Nc3ccc4ccccc4n3)C2)C1=O,< 5 µM
8,N=C1NC(c2ccccc2)(c2ccccc2)C(=O)N1Cc1ccsc1,< 5 µM
9,N=C1NC(c2ccccc2)(c2ccccc2)C(=O)N1CC1CCOCC1,< 5 µM
10,CN1C(=N)N[C@](C)(c2cc(-c3cc(Cl)cc(C#N)c3)cs2)[C@H](C2CC2)C1=O,< 5 µM
11,CCc1sc([C@@]2(C)NC(=N)N(C)C(=O)[C@@H]2CC)cc1-c1cccc(C#N)c1,< 5 µM
12,CN1C(=N)NC(C)(c2cc(-c3cccc(C#N)c3)cs2)C(CC=Cc2cccc(F)c2)C1=O (stereo not shown),< 5 µM
13,CN1C(=N)NC(C)(c2cc(-c3cccc(C#N)c3)cs2)C(CCN2CCCCC2)C1=O (stereo not shown),< 5 µM
14,CN1C(=N)NC(C)(c2cc(-c3cccc(C#N)c3)cs2)C(CCCc2ccccc2)(n2cccn2)C1=O (stereo not shown),< 5 µM
15,CC1(c2cccc(-c3cccc(Cl)c3)c2)NC(=N)N(CC2CCN(S(C)(=O)=O)C2)C1=O (stereo not shown),< 5 µM
16,COc1cncc(-c2csc(C3(C4CC4)NC(=N)N(C)C3=O)c2)c1 (stereo not shown),< 5 µM

row,SMILES,Ki
1,CN1C(=N)NC(c2ccccc2)(c2cccc(-c3cccc(CO)c3)c2)C1=O (stereo not shown),< 5 µM
2,CN1C(=N)NC(C)(c2cc(-c3ccc(F)c(C#N)c3)cs2)C(Br)C1=O (stereo not shown),< 5 µM
3,CN1C(=N)N[C@](C)(c2cc(-c3ccc(F)c(C#N)c3)cs2)[C@H](C2CCC2)C1=O,< 5 µM
4,CN1C(=N)N[C@](C)(c2cc(-c3cncc(C#N)c3)cs2)[C@H](C2CCC2)C1=O,< 5 µM
5,CN1C(=N)N[C@](C)(c2cc(C#N)cs2)[C@@H](c2ccc(C3CC3)cc2)C1=O,< 5 µM
6,CN1C(=N)N[C@](CCC2CCCCC2)(C[C@H]2CCC[C@H](N[C@H]3CCNC3=O)C2)C1=O,< 5 µM
7,CN1C(=N)N[C@](CCC2CCCCC2)(C[C@H]2CCC[C@H](NCCc3ccccc3)C2)C1=O,< 5 µM
8,CN1C(=N)N[C@](C)(c2ccnc(-c3cccnc3F)c2)[C@@H](c2ccc(C3CC3)cc2)C1=O,< 5 µM
9,CN1C(=N)N[C@@](CCC2CCCCC2)(C[C@H]2CCC[C@@H](Nc3ccc4cccc(Cl)c4n3)C2)C1=O,< 5 µM
10,CN1C(=N)N[C@](C)(c2ccc(F)cc2F)[C@@H](c2ccc(N3CCCS3(=O)=O)cc2)C1=O,< 5 µM
11,CN1C(=N)N[C@](C)(c2c(F)cccc2F)[C@@H](c2ccc(C(F)(F)F)cc2)C1=O,< 5 µM
12,CC(C)CC(=O)Nc1cccc(CN2C(=N)NC(c3ccccc3)(c3ccccc3)C2=O)c1,< 5 µM
13,N=C1NC(c2ccccc2)(c2ccccc2)C(=O)N1Cc1cccc(NC(=O)CC2CCCC2)c1,< 5 µM
14,CC(=O)N[C@@H]1CCC[C@H](C[C@@]2(CCc3ccccc3)NC(=N)N(C)C2=O)C1,< 5 µM
15,COc1ccccc1C(=O)N[C@@H]1CCC[C@H](C[C@@]2(CCC3CCCCC3)NC(=N)N(C)C2=O)C1,< 5 µM
16,CN1C(=N)N[C@](CCC2CCCCC2)(C[C@H]2CCC[C@@H](NC(=O)c3ccc4ccccc4n3)C2)C1=O,< 5 µM

# The remaining lines, values ahead:
row,Ki,SMILES
1,< 5 µM,CN1OCC(C)(c2cc(-c3cccc(C#N)c3)cs2)NC1=N (stereo not shown)
2,< 5 µM,CN1C(=N)NC(C)(c2cccc(N3CCC(C#N)C3)c2)CC1=O (stereo not shown)
3,< 5 µM,Cc1c(-c2ccc(F)c(C#N)c2)csc1[C@]1(C)CC(=O)N(C)C(=N)N1
4,< 5 µM,CN1C(=N)N[C@](C)(c2cc(-c3cc(Br)cc(C#N)c3)cs2)CC1=O
5,< 5 µM,CN1C(=N)N[C@](C)(c2cc(-c3cc(F)cc(C#N)c3)nn2C)CC1=O
6,< 5 µM,CN1C(=N)N[C@](C)(c2cc(-c3cccc(C#N)c3)c(Br)s2)CC1=O
7,< 5 µM,CN1C(=N)N[C@](C)(c2cnc(-c3cccc(C#N)c3)s2)CC1=O
8,< 5 µM,CCC[C@H]1C(=O)N(C)C(=N)N[C@]1(C)c1cc(-c2cccc(C#N)c2)cs1
9,< 5 µM,C[C@@]1(c2cc(-c3cccc(C#N)c3)cs2)CC(=O)N(Cc2ccncc2)C(=N)N1
10,< 5 µM,C=C1C(=O)N(C)C(=N)N[C@]1(C)c1cccc(-c2cccc(C#N)c2)c1
11,< 5 µM,CCC[C@H]1C(=O)N(C)C(=N)N[C@]1(C)c1cccc(-c2cccc(C#N)c2)c1
12,< 5 µM,CN1C(=N)N[C@](C)(c2scc(C#N)c2Cl)CC1=O
13,< 5 µM,Cc1cccc(-c2cccc(C3(C4CC4)NC(=N)N(C)C3=O)c2)n1 (stereo not shown)
14,< 5 µM,CN1C(=N)N[C@](C)(c2cc(Br)c(-c3cncc(C#N)c3)s2)CC1=O
15,< 5 µM,CC(C)C1(c2cccc(Br)c2)NC(=N)N(C)C1=O (stereo not shown)
16,< 5 µM,CN1C(=N)NC(c2cccc(-c3cncc(Br)c3)c2)(C2(C)CC2)C1=O (stereo not shown)
17,< 5 µM,CN1C(=N)NC(c2ccc(-c3ccc(F)c(C#N)c3)s2)(C2CC2)CC1=O (stereo not shown)
18,< 5 µM,CN1C(=N)N[C@](C)(c2cc(-c3cc(C#N)cc(C#N)c3)cs2)CC1=O
19,< 5 µM,CN1C(=N)NC(C)(c2cccc(-c3cc(Cl)ccc3CCO)c2)C1=O (stereo not shown)
20,< 5 µM,CN1C(=N)NC(C)(c2cccc(-c3cc(Cl)ccc3CCOC=O)c2)C1=O (stereo not shown)
21,< 5 µM,CN1C(=N)N[C@@](c2cccc(-c3cccnc3F)c2)(C2CC2)C1=O

row,Ki,SMILES
1,< 5 µM,CN1C(=N)N[C@@](c2cccc(-c3cccc(CO)c3)c2)(C2CC2)C1=O
2,< 5 µM,CN1C(=N)N[C@](C)(c2ccc(-c3cccc(C(F)(F)F)c3)s2)[C@@H](C2CC2)C1=O
3,< 5 µM,C[C@@]1(c2ccc3sccc3c2)CC(=O)N(CCO)C(=N)N1
4,< 5 µM,CN1C(=N)N[C@](C)(c2ccc3nn(CC4CCCCC4)cc3c2)CC1=O
5,< 5 µM,CN1C(=N)N[C@](C)(c2ccc3c(c2)c(Br)cn3C)CC1=O
6,< 5 µM,CN1C(=N)N[C@](C)(c2sccc2Cl)CC1=O
7,< 5 µM,CCc1csc([C@]2(C)CC(=O)N(C)C(=N)N2)c1
8,< 5 µM,CC(C)Oc1cc(Cl)cc(-c2csc([C@]3(C)CC(=O)N(C)C(=N)N3)c2)c1
9,< 5 µM,CN1C(=N)N[C@](C)(c2cc(-c3ccc(Cl)s3)cs2)CC1=O
10,< 5 µM,CN1C(=N)N[C@](C)(c2ncc(-c3cccc(Cl)c3)s2)CC1=O
11,< 5 µM,COc1ccc(Cl)c(-c2cc([C@]3(C)CC(=O)N(C)C(=N)N3)cc3ccsc23)c1
12,< 5 µM,COCCN1C(=N)N[C@](C)(c2ccc3sccc3c2)CC1=O
13,< 5 µM,COc1cccc(-c2cccc(C3(C)CON(C)C(=N)N3)c2)c1 (stereo not shown)
14,< 5 µM,CN1C(=N)NC(C)(c2cccc(-c3cc(Cl)ccc3CNC(=O)c3ccnnc3)c2)C1=O (stereo not shown)
15,< 5 µM,CN1C(=N)N[C@](C)(c2cccc(N3CCCC3)c2)CC1=O
16,< 5 µM,CN1C(=N)N[C@](C)(c2cccc(N3CCCCC3)c2)CC1=O
17,< 5 µM,CN1C(=N)N[C@](C)(c2cc(-c3cccnc3)c3sccc3c2)CC1=O
18,< 5 µM,COc1ccc([C@H]2C(=O)N(C)C(=N)N[C@]2(C)c2cncs2)cc1
19,< 5 µM,CN1C(=N)N[C@](C)(c2cnn(-c3cccc(I)c3)c2)CC1=O
20,< 5 µM,CCC[C@H]1C(=O)N(C)C(=N)N[C@]1(C)c1cccc(I)c1
